Measurements: patent US20020042054A1, “Vigilance nucleic acids and related diagnostic, screening and therapeutic methods” (priority 1999, published 2002)
Blank lines part the entries; values can stand above or below the molecule they belong to.

Key:
Drosophila [1] = experiment: Responsiveness to arousing stimuli in flies given drug; parameters: species or system Drosophila melanogaster; conditions: in vivo
Description: In order to determine whether periods of rest are associated with increased arousal thresholds, flies were subjected to vibratory stimuli of increasing intensity (0.05 g, 0.1 g, and 6 g). In these experiments, flies were placed in glass tubes (65 mm in length, 5 mm I.D.) maintained on a hard plastic platform above a Grass speaker. The output of the speaker was controlled via a Beckman signal generator and the resulting vibration of the platform was measured with an accelerometer. Each fly received a stimulus each hour (total of 8 stimuli) of constant intensity. The behavioral state at the time of stimulus delivery and the ensuing response were videotaped and scored off-line.

Drosophila [2] = type: in vivo, Drosophila melanogaster
Description: In order to monitor fly behavior, five-day old virgin female Canton-S Drosophila melanogaster were cultured at 25° C., 50-60% humidity, 12 hr:12 hr light:dark cycle, on brewer's yeast, dark corn syrup and agar food, following procedures modified from J. Bennett and D. L. van Dyke, Dros. Inform. Serv. 46:160 (1971). Continuous, high-resolution measurement of fly behavior was achieved using an ultrasound activity monitoring system shown in FIG. 1A. Briefly, a 44 kHz standing wave was passed across an independent enclosure containing a single fly. An integrated circuit sampled a portion of each wave as a function of the transmit signal and compared it to the output from the receive signal for the same time-window. When the fly moved its mass within the field, it perturbed the standing wave and the resulting difference was counted as a movement. The output was sampled by a PC at 200 Hz, the data were summed in 2-sec bins and stored for later processing. This system detects very small movements in Drosophila's behavioral repertoire, including fine movements of the head, wings, and limbs.
To monitor rest-activity patterns in large numbers of flies, an infrared Drosophila Activity Monitoring System was used (Trikinetics; described in M. Hamblen et al., J. Neurogen. 3:249 (1986)). To validate the system, flies were visually monitored for a total of 17.75 h (n=7). The number of times the fly crossed the infrared beam was counted in 5-minute bins.
Drugs (caffeine or hydroxyzine) dissolved in food were continuously available to flies beginning in the final hour of the light period.
The increase in rest was not associated with a general impairment of fly behavior. The activity per waking minute was unchanged during the dark period (both during the first hour and the subsequent hours). The total amount of activity during the light period was also unchanged. Furthermore, responsiveness to arousing stimuli was preserved.

Drosophila [3] = experiment: Grooming control for validating the infrared system: dusting flies; type: in vivo, Drosophila melanogaster; conditions: flies dusted with the substance
Description: Additional controls were used to validate the infrared system. […] It was determined that food deprivation for 1 day increased waking by 50% in Drosophila.

- responsiveness to arousing stimuli (Drosophila [1]): preserved
- total amount of activity during the light period (Drosophila [2]; in vivo): unchanged
Molecule: OCCOCCN1CCN(C(c2ccccc2)c2ccc(Cl)cc2)CC1 (centres unmarked) [hydroxyzine]
- rest during the first hour of the dark period (Drosophila [2]; drug in food from the final hour of the light period, n=40/dose, FIG. 3D): increased in a dose-dependent manner
- latency to first dark period rest (Drosophila [2]; drug in food from the final hour of the light period, n=40/dose, FIG. 3E): decreased

Molecule: Cn1c(=O)c2c(ncn2C)n(C)c1=O [caffeine]
- motor activity (Drosophila [2]; drug in food from the final hour of the light period, n=36/dose): increased
- amount of rest during the dark period (Drosophila [2]; drug in food from the final hour of the light period, n=36/dose, p<0.0001, FIG. 3C): decreased in a dose-dependent fashion

Molecule: Reactive Yellow
- increase in grooming behavior (Drosophila [3]): 72%
- number of infrared crossings (Drosophila [3]): did not reduce
